In patent publication US9284321B2, “Piperazino[1,2-a]indol-1-ones and [1,4]diazepino[1,2-a]indol-1-one” (Hoffmann-La Roche Inc., priority 2012, dated 2016) one finds melting point and EC (150% of control) data, which are given here for 30 compounds.

For series [1], the system named is human embryonic stem cell derived neural stem cells (NSCs). The experiment in a line: Neural Stem Cell Proliferation Assay (neurogenesis assay, ATP levels by CellTiterGlo). The format is cell-based. To be noted: 96 h, compound concentration at which 150% activity of control (100%) is reached, NSC proliferation by ATP level after 4 days incubation, dose response 8 μM to 8 nM. Here is the method: Neurogenic properties of small molecules are determined based on the proliferation of human embryonic stem cell derived neural stem cells (NSCs) which were derived via a dual smad inhibition as previously described (Chambers, S. M., et al., Highly efficient neural conversion of human ES and iPS cells by dual inhibition of SMAD signaling, Nature biotechnology, 2009. 27(3): p. 275-80.)
Compounds respond is measured by the increase in cells based on ATP levels
(Promega:CellTiterGlo®) after an incubation period of 4 days.
NSCs are thawed and expanded over 3 passages. On the 14th day, NSCs are seeded in Polyornithin/Laminin coated 384 well plates at a cell density of 21′000 cells/cm^2 in a media volume of 38 μl.
4 hours after cell seeding, compound solutions are added at a volume of 2 μl. Stock solutions of the compounds (water, 5% DMSO) are diluted to obtain a dose response (11 points, dilution factor is 2), ranging from 8 μM to 8 nM. Controls are run to consistently determine the neurogenic properties of the cells:
Negative (neutral) control is cell culture Media (final DMSO concentration: 0.25%).
• 1. cell culture Media+100 ng/ml FGF2 (final DMSO concentration: 0.1%) • 2. cell culture Media+20 ng/ml EGF (final DMSO concentration: 0.1%) • 3. cell culture Media+100 ng/ml Wnt3a (final DMSO concentration: 0.1%)
After 4 days incubation at 37° C., 5% CO2, the amount of ATP per well is quantified. The ATP concentration is proportional to the cell number. ATP is quantified by using the Promega CellTiterGlo® kit. The CellTiterGlo® reagents contain a cell lysis buffer, a thermo stable luciferase (UltraGlo™ recombinant luciferase), magnesium and luciferin. Luciferin reacts with ATP producing oxyluciferin, AMP and light. The luminescence signal is proportional to the ATP content.
The value of negative (neutral) control is determined for each assay plate by taking the average of 16 negative control wells. The neurogenic compound response is calculated for each compound as (compound/Negative Control)*100.
The values of EC150 from the dose response curve are determined for each test compound. The EC150 is the compound concentration at which 150% activity of control (100%) is reached.
Background: In ATP-based viability assays light output follows the ATP content of the culture.

The term melting point denotes the temperature, or range, at which the solid turns liquid. The compound `CC1CCNC(=O)c2cc3cc(F)cc(-c4ccccc4)c3n21` (racemic) [Example 26, (RS)-9-Fluoro-5-methyl-7-phenyl-2,3,4,5-tetrahydro-[1,4]diazepino[1,2-a]indol-1-one] had a melting point of 232.5 °C. The compound further gave an EC (150% of control) in series [1] of 0.24 µM.
`CC1CCNC(=O)c2cc3cc(F)cc(-c4ccc(F)cc4)c3n21` (racemic) [Example 27, (RS)-9-Fluoro-7-(4-fluoro-phenyl)-5-methyl-2,3,4,5-tetrahydro-[1,4]diazepino[1,2-a]indol-1-one] had a melting point of 235.5 °C. For the same compound, in series [1], the EC (150% of control) is 0.18 µM.
Taken in the same sequence, the figures for `C[C@@H]1CNC(=O)c2cc3cccc(-c4ccccc4)c3n21` [Example 1, (R)-4-Methyl-6-phenyl-3,4-dihydro-2H-pyrazino[1,2-a]indol-1-one] were 239 °C and 3.97 µM.
Taken in the same sequence, the figures for `COc1ccc(-c2cccc3cc4n(c23)[C@H](C)CNC4=O)cc1` [Example 2, (R)-6-(4-Methoxy-phenyl)-4-methyl-3,4-dihydro-2H-pyrazino[1,2-a]indol-1-one] were 247 °C and 0.85 µM.
Taken in the same sequence, the figures for `C[C@@H]1CNC(=O)c2cc3cccc(-c4ccncc4)c3n21` [Example 3, (R)-4-Methyl-6-pyridin-4-yl-3,4-dihydro-2H-pyrazino[1,2-a]indol-1-one] were 264 °C and 2.31 µM.
`C[C@@H]1CNC(=O)c2cc3cc(F)cc(-c4ccccc4)c3n21` [Example 4, (R)-8-Fluoro-4-methyl-6-phenyl-3,4-dihydro-2H-pyrazino[1,2-a]indol-1-one] came in with a melting point of 243.5 °C. In series [1], this compound had an EC (150% of control) of 0.37 µM.
Compound `COc1ccc(-c2cc(F)cc3cc4n(c23)[C@H](C)CNC4=O)cc1` [Example 5, (R)-8-Fluoro-6-(4-methoxy-phenyl)-4-methyl-3,4-dihydro-2H-pyrazino[1,2-a]indol-1-one] returned a melting point of 228.5 °C. Besides, in series [1], the EC (150% of control) was determined as 0.034 µM.
For `C[C@@H]1CNC(=O)c2cc3cc(F)cc(-c4ccc(F)cc4)c3n21` [Example 6, (R)-8-Fluoro-6-(4-fluoro-phenyl)-4-methyl-3,4-dihydro-2H-pyrazino[1,2-a]indol-1-one], in that order: 276 °C and 0.22 µM.
With `C[C@@H]1CNC(=O)c2cc3cc(F)cc(-c4ccncc4)c3n21` [Example 7, (R)-8-Fluoro-4-methyl-6-pyridin-4-yl-3,4-dihydro-2H-pyrazino[1,2-a]indol-1-one], the melting point was determined as 294.5 °C. Besides, the EC (150% of control) in series [1] is 0.4 µM.
Taken in the same sequence, the figures for `Cc1ccc(-c2cc(F)cc3cc4n(c23)[C@H](C)CNC4=O)cc1` [Example 8, (R)-8-Fluoro-4-methyl-6-p-tolyl-3,4-dihydro-2H-pyrazino[1,2-a]indol-1-one] were 294.5 °C and 0.048 µM.
The compound `C[C@@H]1CNC(=O)c2cc3cc(F)cc(-c4cc(F)cc(F)c4)c3n21` [Example 9, (R)-6-(3,5-Difluoro-phenyl)-8-fluoro-4-methyl-3,4-dihydro-2H-pyrazino[1,2-a]indol-1-one] displayed a melting point of 229.5 °C. Also, the EC (150% of control) in series [1] was 0.37 µM.
Taken in the same sequence, the figures for `C[C@@H]1CNC(=O)c2cc3cc(F)cc(-c4ccc(F)c(F)c4)c3n21` [Example 10, (R)-6-(3,4-Difluoro-phenyl)-8-fluoro-4-methyl-3,4-dihydro-2H-pyrazino[1,2-a]indol-1-one] were 267 °C and 0.22 µM.
For `C[C@@H]1CNC(=O)c2cc3cc(F)cc(-c4ccc(Cl)cc4)c3n21` [Example 11, (R)-6-(4-Chloro-phenyl)-8-fluoro-4-methyl-3,4-dihydro-2H-pyrazino[1,2-a]indol-1-one], in that order: 282.5 °C and 0.1 µM.
For `O=C1NCCn2c1cc1cc(F)cc(-c3ccccc3)c12` [Example 12, 8-Fluoro-6-phenyl-3,4-dihydro-2H-pyrazino[1,2-a]indol-1-one], in that order: 236.5 °C and 0.037 µM.
Compound `C[C@@H]1CNC(=O)c2cc3cc(F)cc(-c4ccc(C(F)(F)F)cc4)c3n21` [Example 13, (R)-8-Fluoro-4-methyl-6-(4-trifluoromethyl-phenyl)-3,4-dihydro-2H-pyrazino[1,2-a]indol-1-one] displayed a melting point of 307 °C. Also, the EC (150% of control) in series [1] came out at 0.16 µM.
For `C[C@@H]1CNC(=O)c2cc3cc(F)cc(-c4cccc(F)c4)c3n21` [Example 14, (R)-8-Fluoro-6-(3-fluoro-phenyl)-4-methyl-3,4-dihydro-2H-pyrazino[1,2-a]indol-1-one], in that order: 232 °C and 0.34 µM.
Taken in the same sequence, the figures for `O=C1NCCCn2c1cc1cc(F)cc(-c3ccccc3)c12` [Example 15, 9-Fluoro-7-phenyl-2,3,4,5-tetrahydro-[1,4]diazepino[1,2-a]indol-1-one] were 277 °C and 0.084 µM.
As to `COc1ccc(-c2cc(F)cc3cc4n(c23)CCCNC4=O)cc1` [Example 16, 9-Fluoro-7-(4-methoxy-phenyl)-2,3,4,5-tetrahydro-[1,4]diazepino[1,2-a]indol-1-one], the melting point is 225.5 °C. The compound also yielded an EC (150% of control) in series [1] of 0.009 µM.
In series [1], `Cc1c2n(c3c(-c4ccc(Cl)nc4)cc(F)cc13)CCNC2=O` [Example 144, 6-(6-Chloro-pyridin-3-yl)-8-fluoro-10-methyl-3,4-dihydro-2H-pyrazino[1,2-a]indol-1-one] gave an EC (150% of control) of 0.081 µM.
Regarding `N#Cc1cc(-c2ccc(Cl)c(C(F)(F)F)c2)c2c(c1)cc1n2CCCNC1=O` [Example 254, 7-[4-Chloro-3-(trifluoromethyl)phenyl]-1-oxo-2,3,4,5-tetrahydro-[1,4]diazepino[1,2-a]indole-9-carbonitrile], the melting point came out at 224.5 °C.
Same read-out and setting: next, `N#Cc1cc(-c2cccnc2)c2c(c1)cc1n2CCCNC1=O` [Example 263, 1-Oxo-7-pyridin-3-yl-2,3,4,5-tetrahydro-[1,4]diazepino[1,2-a]indole-9-carbonitrile]: 252 °C; `N#Cc1cc(-c2ccc(N)nc2)c2c(c1)cc1n2CCCNC1=O` [Example 264, 7-(6-Aminopyridin-3-yl)-1-oxo-2,3,4,5-tetrahydro-[1,4]diazepino[1,2-a]indole-9-carbonitrile]: 314.5 °C.
Same read-out and setting: to `N#Cc1cc(-c2ccc(Cl)nc2)c2c(c1)cc1n2CCCNC1=O` [Example 265, 7-(6-Chloropyridin-3-yl)-1-oxo-2,3,4,5-tetrahydro-[1,4]diazepino[1,2-a]indole-9-carbonitrile] belongs 204 °C.
Same read-out and setting: next, `Cc1c2n(c3c(-c4cccc(Cl)c4)cc(C#N)cc13)CCNC2=O` [Example 268, 6-(3-Chlorophenyl)-10-methyl-1-oxo-3,4-dihydro-2H-pyrazino[1,2-a]indole-8-carbonitrile]: 254 °C; `CC(C)(C)c1ccc(-c2cc(C#N)cc3cc4n(c23)CCCNC4=O)cc1` [Example 270, 7-(4-tert-Butylphenyl)-1-oxo-2,3,4,5-tetrahydro-[1,4]diazepino[1,2-a]indole-9-carbonitrile]: 215 °C.
Compound `N#Cc1cc(-c2ccc(F)nc2)c2c(c1)cc1n2CCCNC1=O` [Example 272, 7-(6-Fluoropyridin-3-yl)-1-oxo-2,3,4,5-tetrahydro-[1,4]diazepino[1,2-a]indole-9-carbonitrile] registered a melting point of 264.5 °C.
With `N#Cc1cc(-c2cncnc2)c2c(c1)cc1n2CCCNC1=O` [Example 273, 1-Oxo-7-pyrimidin-5-yl-2,3,4,5-tetrahydro-[1,4]diazepino[1,2-a]indole-9-carbonitrile], the melting point worked out at 277 °C.
`N#Cc1cc(-c2cc(Cl)cc(Cl)c2)c2c(c1)cc1n2CCCNC1=O` [Example 286, 7-(3,5-Dichlorophenyl)-1-oxo-2,3,4,5-tetrahydro-[1,4]diazepino[1,2-a]indole-9-carbonitrile] had a melting point of 244 °C.
Same read-out and setting: next, `Cc1c2n(c3c(-c4cc(Cl)cc(Cl)c4)cc(C#N)cc13)CCNC2=O` [Example 293, 6-(3,5-Dichlorophenyl)-10-methyl-1-oxo-3,4-dihydro-2H-pyrazino[1,2-a]indole-8-carbonitrile]: 347 °C; `Cc1c2n(c3c(-c4cncnc4)cc(C#N)cc13)CCCNC2=O` [Example 299, 11-Methyl-1-oxo-7-pyrimidin-5-yl-2,3,4,5-tetrahydro-[1,4]diazepino[1,2-a]indole-9-carbonitrile]: 304 °C.
